Earlier results in patent US20240000717A1, “DRY POWDER ANTIVIRAL COMPOSITIONS AND THEIR USE FOR TREATING VIRAL INFECTION” (priority 2020, published 2024).

Tested on: hospitalized COVID-19 patients
Details: Pan et al., MedRxiv 2020

For CCC(CC)COC(=O)[C@H](C)N[P@](=O)(OC[C@H]1O[C@@](C#N)(c2ccc3c(N)ncnn23)[C@H](O)[C@@H]1O)Oc1ccccc1 [remdesivir, 2-ethylbutyl ((S)-(((2R,3S,4R,5R)-5-(4-aminopyrrolo[2,1-f][1,2,4]triazin-7-yl)-5-cyano-3,4-dihydroxytetrahydrofuran-2-yl)methoxy)(phenoxy)phosphoryl)-L-alaninate], the “effect on 28-day mortality” value is given as “little or no effect”.
